Results reported in patent US12103952B2, “Methods for expressing proteins in axons” (Cornell University, priority 2010, dated 2024).

Experiments:
[1] = tested on: CREB reporter mRNA translation in DRG axons; assay: myr-dEGFP3′CREB Sindbis translation reporter in axons; type: cell-based, rat; conditions: factor restored after NGF-free media
Text: FIGS. 5A-C are results showing NGF-dependent translation of a CREB reporter mRNA in axons. (A) Schematic diagram of the Sindbis viral reporter construct used to monitor CREB translation. The reporter contains a myristoylated, destabilized EGFP (myr-dEGFP) with the 3′UTR of CREB, expressed under control of the Sindbis subgenomic promoter (PSG). (B) E15 DRG explant cultures were infected with Sindbis constructs expressing myr-dEGFP3′CREB on DIV3 and fluorescence (bottom panel) and phase (top panel) images, approximately 1000 μm from the cell body were collected after 24 hours. Fluorescence images are shown in inverted contrast in order to more readily visualize puncta. Scale bar, 25 μm. […] EGFP fluorescence co-localizes with a population of S6-labeled ribosomal clusters. […]
FIGS. 6A-H are data showing that axonal CREB is specifically translated in response to NGF. […] (B) E15 DRG explant cultures were infected with Sindbis constructs expressing myr-dEGFP3′RhoA or myr-dEGFP3′H1f0 on DIV3 and fluorescence images were collected after 24 h. […] (D) Axons from DIV3 DRGs were analyzed for CREB and mitochondrial localizations by immunofluorescence using CREB-specific and VDAC/porin1-specific antibodies. […] CREB mRNA was detected by FISH using a CREB specific riboprobe. […] (H) Axons of DIV3 DRG explant cultures were analyzed by immunofluorescence for NGF effectors CREB, pTrkA and pErk5 at 3 DIV. […]

[2] = tested on: CRE-dependent transcription; assay: CRE-luciferase adenovirus reporter in DRG neurons; type: cell-based, rat

## NGF: nerve growth factor
[1]
  fluorescent myr-dEGFP3′CREB puncta: reappeared following restoration of NGF
[2]; axonal application of NGF
  luciferase levels: increased luciferase levels
[2]; bath application of NGF, 0-100 ng/ml, 24 hours
  luciferase immunofluorescence: dose-dependent increase in luciferase immunofluorescence
